From patent publication US10172911B2, “Methods of modulating erythropoiesis with arginine vasopressin receptor 1B molecules” (The United States of America, as represented by the …, priority 2013, dated 2019)
Entries after “also recorded” stand apart in the source; their conditions may differ.

Columns and labels:
mice [1] = assay: Phenylhydrazine (hemolytic) anemia model; type: in vivo, mouse; conditions: day 2 and day 4
Protocol: Phenylhydrazine, a known hemolytic agent, was injected intraperitoneally by administration of phenylhydrazine hydrochloride ip. 50 mg/kg body wt. (injection volume range of 100-150 μls) on day 0 and 1 and then mice were implanted with ALZET micro-osmotic pumps as described above to deliver AVP or vehicle. Blood samples were taken at 2, 4 and in some cases 6 and 14 days later to determine hematocrit and corrected reticulocyte values.

[2] = tested on: mouse bone marrow LSK cells; assay: BrdU cell proliferation assay, sorted mouse bone marrow LSK cells; type: cell-based; conditions: 10^−8M-10^−14M, 2 days culture
Protocol: Sorted mouse bone marrow LSK cells (10000 cells/well) were plated in a 96 well plate in Stemspan serum free expansion medium ([…] Technologies, Vancouver, Canada) with Pen/Strep, and the following hematopoietic factors: 100 ng/ml TPO, 50 ng/ml FLT3L, 50 ng/ml IL-3 and SCF 100 ng/ml (Peprotech, Rocky Hill, N.J.). Cells were treated with […] (Sigma-Aldrich, St. Louis, Mo.). When using human CD34^+ cells (5000 cells/well), human SCF, TPO, FLT3L and G-CSF (Peprotech, each at 50-100 ng/ml) were added to the Stemspan medium. Cells were treated with 10^−8M-10^−14M AVP. After 24 hours, BrdU at a 1:1000 concentration was added to the cultures and incorporation of BrdU was measured using the Cell Proliferation ELISA BrdU kit (Roche, Mannheim, Germany) after another 24 hours of incubation.

human CD34^+ cells = assay: Brattleboro/LE rat BMSC and human CD34+ progenitor co-culture, BrdU; type: cell-based; conditions: AVP 10^−13 M
Protocol: Rat BMSCs were isolated and cultured from the bone marrow of 5-6 weeks old male Brattleboro (animals that lack the ability to produce vasopressin) and Long-Evans rats (control strain for the Brattleboro rats) as described before. For flow cytometry studies, 100000 rat BMSCs per well were plated in αMEM medium (20% FBS) in 12 well plates in quadruplicates and incubated overnight. Next day, medium was removed and 200000 human CD34 cells per well were added in Stemspan medium with factors (human SCF, TPO, FLT3L and G-CSF 100 ng/ml). Co-culture was stimulated with AVP or left unstimulated (PBS) and next day BrdU was added. After 24 hours the cells were trypsinized, brought up in αMEM (20% FBS), resuspended and strained through 70 μm cell strainer. For normalization, Sigma beads were added to each sample tube. Cells were washed with FACS buffer and stained for human CD34 and CD38. The subsequent steps were done according to the BD BrdU Flow kit protocol. At flow cytometry measurements, cell numbers were normalized to Sigma bead numbers.

[3] = tested on: CD34^+ cells from healthy donors; assay: CFU assay (E-CFU, GM-CFU) of human CD34+ cells in Methocult; type: cell-based; conditions: per 1000 plated CD34+ cells; 10^−8 M
Protocol: CD34^+ cells from healthy donors were plated into semi-solid methylcellulose medium (Methocult) containing hematopoietic factors (GM-CSF 5 ng/ml, IL-3 5 ng/ml, SCF 50 ng/ml, EPO 2.5 U/ml).
The number of erythroid colony forming units (E-CFU) and granulocyte-macrophage colony forming units (GM-CFU) were determined based on morphological criteria on 7th and 14th days in culture.

mice [4] = assay: Peripheral blood values following EPO vs. AVP injections in hemorrhage; type: in vivo, mouse
Protocol: AVP (100 μg/kg bodyweight) or EPOetin alfa (50 U/bodyweight, EPOgen) was administered intra-peritoneally to mice, immediately following hemorrhage. […] Hematocrit and reticulocyte counts were measured at different time points.

mice [5] = assay: Single intraperitoneal AVP injection, bone marrow populations 16 hours later; type: in vivo, mouse; conditions: i.p. 100 μg/kg, bone marrow 16 hours later
Protocol: Short-term effect of a single intraperitoneal AVP injection: [Arg8]-Vasopressin (Ana-spec) (100 μg/kg body weight) together with 20 mg/kg body weight o-phenantroline (Sigma-Aldrich) or vehicle PBS with 20 mg/kg body weight o-phenantroline. 16 hours later bone marrow (two hind limbs) and spleen cells were obtained to study the distribu-tion of HSCs and multipotent progenitors (MPP) as well as intermediate lineage-com-mitted progenitors and the erythroid populations as described before (n=5/group) (Wilson et al. Cell 135, 1118-1129, doi:10.1016/j.cell.2008.10.048 (2008); Pronk, C. J. et al. Cell Stem Cell 1, 428-442, doi:10.1016/j.stem.2007.07.005 (2007); Weissman, I. L. Cell 100, 157-168 (2000). Serial AVP injections: Mice (n=8-9) were injected ip. 2 times/day with AVP 100 μg/kg body weight or PBS for 6.5 days. After day 6.5, mice were euthanized and the erythroid populations (CD71^+, Ter119^+) in spleen and bone marrow were analyzed (Cheshier, S. H. et al., Stem Cells Dev 16, 707-717, doi:10.1089/scd.2007.0017 (2007).

NC(=O)CC[C@@H]1NC(=O)[C@H](Cc2ccccc2)NC(=O)[C@H](Cc2ccc(O)cc2)NC(=O)[C@@H](N)CSSC[C@@H](C(=O)N2CCC[C@H]2C(=O)N[C@@H](CCCN=C(N)N)C(=O)NCC(N)=O)NC(=O)[C@H](CC(N)=O)NC1=O [AVP, [Arg8]-Vasopressin]
outcome measures (hematocrit, corrected reticulocytes) (mice [1]): significantly improved outcome measures on day 2 and to some extent on day 4
proliferation (BrdU incorporation) of mouse LSK cells [2]: induced proliferation; also recorded: stimulated LSK proliferation; also recorded: significantly increased the proliferation
proliferation of CD34+ cells (human CD34^+ cells; Brattleboro-derived BMSCs): failed to induce proliferation
proliferation of CD34+ cells (human CD34^+ cells; LE BMSCs): did cause CD34^+ cells to proliferate
erythroid-colony forming unit (E-CFU) numbers [3]: significantly increased; also recorded: increased erythroid colony formation
granulocyte macrophage-colony forming unit (GM-CFU) numbers [3]: increased both E-CFU and GM-CFU in another
increase in hematocrit compared to PBS (mice [4]; AVP 100 μg/kg i.p. just after hemorrhage): only statistically significant at 12 and 24 hours; also recorded: significant increase in hematocrit 12 hours following the insult
differences in hematocrit between EPO and AVP (mice [4]; after hemorrhage): significant at 6, 12 and 24 hours and disappeared 5 days after hemorrhage
number of HSCs and early multipotent progenitors (MPPs) (mice [5]): No difference was detected
number of red blood cell producing progenitors and blast cells (CMP, MEP, proerythroblast, erythroblasts) (mice [5]): statistically significant increase
